Measured values reported in patent publication US9943525B2, “Composition for reducing cell senescence comprising Rho-kinase inhibitor and use thereof” (Samsung Electronics Co., Ltd., priority 2014, dated 2018).

What was measured:
[1] = test system: senescent myoblasts (11 cell passages); experiment: mitochondrial ROS (MitoSOX) by flow cytometry; format: cell-based, Human; conditions: vs control, p<0.05, FIG. 15
Protocol: Myoblast cell lines (Human Skeletal Muscle Myoblasts, Lonza CC-2580 LOT:0000387550) were cultured in SkBM™-2 Basal Media (Lonza CC-3246) including an SkGM™-2 SingleQuots™ Kit (Lonza CC-3244) on plates coated with Collagen Type I (Greiner Bio One, 658950) in a 5% CO2 incubator at 37° C. Subculture was initiated when the cells were approximately 85% confluent in plates. Early subcultures were performed at a split ratio of 1:4, and later subcultures were performed at a split ratio of 1:2. When cell doubling time was 14 days, the cells were regarded as senescent myoblasts (cell passages 10 to 12).
Senescent cells were seeded on each well of a 6-well plate coated with Collagen Type I (Greiner Bio One, 657950) in a concentration of 2,000 cells/well. Senescent myoblasts (passage 11) were cultured in the presence of 5 μM of Y-27632, 5 μM of FASUDIL, and 0.5 μM of SR3677 for 4 weeks in a 5% CO2 incubator at 37° C. The culture media were changed at every 4 days with new culture media supplemented with 5 μM of Y-27632, 5 μM of FASUDIL, and 0.5 μM of SR3677. A negative control group was prepared in the same manner, except that 0.05 (v/v) % of DMSO was used.
ROS were measured using a 0.2 μM MitoSOX (Invitrogen, M3608) according to manufacturer's manuals. Light having a wavelength of 520 nm was irradiated to the cells using a FACSCaliber (Beckton Dickinson), and light emission was measured at 580 nm. The results were analyzed using Cell Quest 3.2 software (Beckton Dickinson).

[2] = test system: senescent fibroblasts (after 37 cell passages); experiment: lipofuscin autofluorescence by flow cytometry; format: cell-based, human; conditions: 4 weeks, vs control, p<0.05, FIG. 9
Protocol: In addition, amounts of lipofuscin accumulated in the cultured cells were measured. Senescent cells (After 37 cell passages) were cultured for 4 weeks in a 5% CO2 incubator at 37° C. in the presence of 5 μM of Y-27632, 5 μM of FASUDIL, and 0.5 μM of SR3677. The culture media were changed at every 4 days with new culture media supplemented with 5 μM of Y-27632, 5 μM of FASUDIL, and 0.5 μM of SR3677. Since lipofuscin has autofluorescence characteristics, light having a wavelength of 488 nm was irradiated to the cells by using a FACSCaliber (Beckton Dickinson) and light emission at 520 nm was measured. The results are analyzed using a Cell Quest 3.2 software (Beckton Dickinson). FIG. 9 is a graph displaying amounts of lipofuscin in fibroblasts (after 37 cell passages) cultured in the presence of Rho-kinase inhibitors Y-27632 (5 μM), Fasudil (5 μM), and SR3677 (0.5 μM). […] In FIG. 9, * indicates statistically significant (p<0.05).

[3] = test system: senescent fibroblasts (after 37 cell passages); experiment: cell proliferation and colony formation, crystal violet stain; format: cell-based, human; conditions: 4 weeks; for cell proliferation and cell colony formation: vs DMSO
Protocol: Fibroblast cell lines were cultured in Dulbecco's Modified Eagle's Media (DMEM) supplemented with 10% fetal bovine serum (FBS) and 100 unit/ml of penicillin, and 100 μg/ml of streptomycin (two antibiotics are purchased from Gibro-BRL and Grand Island, N.Y.) in a 5% CO2 incubator at 37° C. The fibroblast cell lines (M11 strain) were obtained from a foreskin of a child. Subculture was initiated when the cells were approximately 85% confluent in plates. Early subcultures were performed at a split ratio of 1:4, and later subcultures were performed at a split ratio of 1:2. When cell doubling time was 14 days, the cells were regarded as senescent fibroblasts (passages 35 to 37).
In order to determine optimum concentrations of Rho-kinase inhibitors Y-27632 (Selleckchem, S1049, 50 mg 2HCl salt form), FASUDIL (Selleckchem, S1573, 500 mg HCl salt form), and SR3677 (Synkinase, SYN1083, 10 mg), the senescent fibroblasts (after 37 cell passages) were seeded on each well of a 6-well plate in a concentration of 2,000 cells/well, and the wells were treated with 1 μM, 5 μM, 10 μM, 20 μM, and 30 μM of Y-27632, 1 μM, 5 μM, 10 μM, 20 μM, and 30 μM of FASUDIL, and 0.01 μM, 0.05 μM, 0.1 μM, 0.5 μM, and 1 μM of SR3677. In addition, a negative control group was prepared in the same manner, except that dimethyl sulfoxide (DMSO) was used. The culture media supplemented with the Rho-kinase inhibitors were changed at every 4 days, and colonies were stained with a 0.05% crystal violet stain after 4 weeks.

[4] = test system: senescent fibroblasts (after 37 cell passages); experiment: mitochondrial membrane potential (JC-1) by flow cytometry; format: cell-based, human; conditions: vs control, p<0.05, FIG. 11
Protocol: Mitochondrial membrane potentials were measured using a MitoProbe™ JC-1 Assay kit for Flow Cytometry (Life technologies, T3168) according to manufacturer's manuals. JC-1 is accumulated in mitochondria in a potential-dependent manner, and this accumulation is identified by fluorescence emission shift from green (about 529 nm) to red (about 590 nm). As a result, mitochondrial depolarization is identified by a decrease in a red/green fluorescence ratio. The mitochondrial membrane potentials were measured by excitation at 488 nm using a FACSCaliber (Beckton Dickinson) and using a flow cytometer by using 530/30 nm and 585/42 nm band pass filters. The results were analyzed using Cell Quest 3.2 software (Beckton Dickinson). FIG. 11 is a graph displaying action potentials of mitochondria. […] In FIG. 11, * indicates statistically significant (p<0.05). In FIG. 11, the vertical axis is mitochondrial membrane potential. “MMP” refers to mitochondria membrane potential.

SMILES	ROS ([1]; 5 μM)	amounts of lipofuscin in cells ([2]; 5 μM)	cell proliferation and cell colony formation ([3]; 5 μM, FIG. 1 B)	toxic effects on cell proliferation and cell colony formation ([3]; 10 μM, 20 μM, and 30 μM, FIG. 1 B)	action potentials of mitochondria (mitochondrial membrane potential) ([4]; 5 μM)	cell proliferation and cell colony formation ([3]; 5 μM, 10 μM, and 20 μM, FIG. 1 A)	toxic effects on cell proliferation and cell colony formation ([3]; 30 μM, FIG. 1 A)	ROS ([1]; 0.5 μM)	amounts of lipofuscin in cells ([2]; 0.5 μM)	cell proliferation and cell colony formation ([3]; 0.5 μM, FIG. 1 C)	toxic effects on cell proliferation and cell colony formation ([3]; 1 μM, FIG. 1 C)	action potentials of mitochondria (mitochondrial membrane potential) ([4]; 0.5 μM)
O=S(=O)(c1cccc2cnccc12)N1CCCNCC1 [FASUDIL, 5-(1,4-diazepane-1-sulfonyl)isoquinoline]	significantly reduced	significantly reduced	greatest therapeutic effects	reduces cell proliferation and cell colony formation due to toxic effects	significantly increased							
C[C@@H](N)[C@H]1CC[C@H](C(=O)Nc2ccncc2)CC1 [Y-27632, (1R,4R)-4-((R)-1-aminoethyl)-N-(pyridin-4-yl)cyclohexanecarboxamide]	significantly reduced	significantly reduced			significantly increased	greatest therapeutic effects	reduces cell proliferation and cell colony formation due to toxic effects					
CN(C)CCOc1cc(-c2cn[nH]c2)ccc1NC(=O)C1COc2ccccc2O1 (stereo not drawn) [SR3677]								significantly reduced	significantly reduced	greatest therapeutic effects	reduces cell proliferation and cell colony formation due to toxic effects	significantly increased
